How the values were obtained:
[1] = tested on: HUP-T3 pancreatic cancer cells; test: Cellular proliferation of HUP-T3 pancreatic cancer cells in vitro; format: cell-based; conditions: treatment on day 1 for 5 h, measured after 7 days
Description: (§1) The aim of the study was to determine the effect of AP12009 (trabedersen) treatment in combination with 5-Fluorouracil (5-FU) on TGFβ2 secretion and on cellular proliferation of HUP-T3 pancreatic cancer cells and WiDr colon cancer cells in vitro.
(§2) 10 μM of AP12009 as monotherapy decreased cell proliferation (53% proliferation of untreated control) and TGFβ2 expression (42% of untreated control) in HUP-T3 cells.

TGFβ2 [2] = test: TGFβ2 secretion/expression in HUP-T3 pancreatic cancer cells; format: cell-based; conditions: ca.
Description: as §1, §2

WiDr colon cancer cells = test: Cellular proliferation of WiDr colon cancer cells in vitro; format: cell-based; conditions: treatment on day 1 for 5 h only, ca.
From the text: as §1

TGFβ2 [3] = test: TGFβ2 secretion/expression in WiDr colon cancer cells; format: cell-based; conditions: ca.
From the text: as §1

[4] = tested on: C8161 human melanoma cells; test: C8161 melanoma xenograft model: tumor growth and survival; conditions: for Tumor growth suppressed relative to control group 1: day 42
Description: Sixty female athymic nude mice were intradermally inoculated with C8161 human melanoma cells and randomized into six groups of 10 mice. Three groups received monotherapy treatment with either OT-101 (trabedersen) (16 mg/kg) (Group 2) or Dacarbazine (DTIC; 1 or 10 mg/kg; Groups 3, 4). Two groups received combination therapy with OT-101/DTIC at 16/1 mg/kg or 16/10 mg/kg (Groups 5 and 6). Vehicle (0.9% saline, Groups 1, 3, and 4) and OT-101 were administered 3 times/week via subcutaneous injection. Vehicle (0.9% saline, Groups 1 and 2) and DTIC (1 or 10 mg/kg) were administered via intraperitoneal injection four times/week. All OT-101/Trabedersen treatments commenced at day 0 of the study and all DTIC treatments commenced on day 14. Mice were monitored for adverse effects, body weight and tumor size three times weekly. The tumor, lungs, liver and kidneys were excised from all mice at termination and weighed.

Row | Compound | 5-FU concentrations that dose-dependently reduced cell proliferation [1] [µM] | 5-FU concentrations at which TGFβ2 was suppressed (TGFβ2 [2]) [µM] | 5-FU concentrations that concentration-dependently reduced cell proliferation (WiDr colon cancer cells) [µM] | 5-FU concentrations at which TGFβ2 was suppressed (TGFβ2 [3]) [µM] | Tumor growth suppressed relative to control group 1 ([4]; group 3: DTIC 1 mg/kg i.p. four times/week from day 14) [%] | Tumor growth suppressed relative to control group 1 ([4]; group 4: DTIC 10 mg/kg i.p. four times/week from day 14) [%] | median survival ([4]; group 3: DTIC 1 mg/kg) [days] | median survival ([4]; group 4: DTIC 10 mg/kg) [days]
1 | O=c1[nH]cc(F)c(=O)[nH]1 [5-FU, 5-Fluorouracil, reference compound] | > 10 | > 75 | > 38 | > 75 | – | – | – | –
2 | CN(C)/N=N/c1[nH]cnc1C(N)=O [DTIC, Dacarbazine] | – | – | – | – | −2 | 78 | 47 | 60

— patent US20170226518A1, “COMPOSITIONS AND METHODS FOR TREATING CANCER” (Autotelic LLC, priority 2016, published 2017)
